Test results reported in ChEMBL document CHEMBL2385041, “The discovery of colchicine-SAHA hybrids as a new class of antitumor agents” (Bioorg Med Chem, 2013).
Calls of active or inactive are those of the source. The calls are words filed in the database; no cut-off is given here.

Columns and labels:
Bel-7402 [1] = experiment: Cell cycle arrest in human Bel7402 cells assessed as accumulation at G2/M phase at 10 uM relative to control; type: functional, cell-based
Histone deacetylase 3 = Histone deacetylase 3 (Homo sapiens, UniProt O15379); experiment: Inhibition of human recombinant HDAC3 expressed in High5 insect cells using Ac-Lys-Tyr-Lys(-acetyl)-AMC as substrate after 24 hrs by fluorescence assay
Sequence of Histone deacetylase 3 (O15379 whole entry): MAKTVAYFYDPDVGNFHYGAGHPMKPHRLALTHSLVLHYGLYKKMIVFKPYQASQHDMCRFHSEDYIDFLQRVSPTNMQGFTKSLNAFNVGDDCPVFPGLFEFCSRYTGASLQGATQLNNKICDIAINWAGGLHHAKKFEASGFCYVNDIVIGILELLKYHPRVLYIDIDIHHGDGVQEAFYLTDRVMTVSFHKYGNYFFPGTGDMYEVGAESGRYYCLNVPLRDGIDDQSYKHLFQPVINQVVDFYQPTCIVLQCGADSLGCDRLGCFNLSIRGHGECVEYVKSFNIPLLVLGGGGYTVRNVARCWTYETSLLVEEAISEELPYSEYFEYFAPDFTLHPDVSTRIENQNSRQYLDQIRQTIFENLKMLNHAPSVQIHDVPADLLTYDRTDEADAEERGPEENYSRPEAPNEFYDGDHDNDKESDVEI

A549 = experiment: Cytotoxicity against human A549 cells after 72 hrs by MTT assay; type: functional, cell-based; settings: A549, 72 h
A-431 = experiment: Cytotoxicity against human A431 cells after 72 hrs by MTT assay; type: functional, cell-based; settings: A-431, 72 h
MCF7 = experiment: Cytotoxicity against human MCF7 cells after 72 hrs by MTT assay; type: functional, cell-based; settings: MCF7, 72 h
PC-3 = experiment: Cytotoxicity against human PC3 cells after 72 hrs by MTT assay; type: functional, cell-based; settings: PC-3, 72 h
Histone deacetylase 1 = Histone deacetylase 1 (Homo sapiens, UniProt Q13547); experiment: Inhibition of human recombinant HDAC1 expressed in High5 insect cells using Ac-Lys-Tyr-Lys(-acetyl)-AMC as substrate after 24 hrs by fluorescence assay
Sequence of Histone deacetylase 1 (Q13547 whole entry): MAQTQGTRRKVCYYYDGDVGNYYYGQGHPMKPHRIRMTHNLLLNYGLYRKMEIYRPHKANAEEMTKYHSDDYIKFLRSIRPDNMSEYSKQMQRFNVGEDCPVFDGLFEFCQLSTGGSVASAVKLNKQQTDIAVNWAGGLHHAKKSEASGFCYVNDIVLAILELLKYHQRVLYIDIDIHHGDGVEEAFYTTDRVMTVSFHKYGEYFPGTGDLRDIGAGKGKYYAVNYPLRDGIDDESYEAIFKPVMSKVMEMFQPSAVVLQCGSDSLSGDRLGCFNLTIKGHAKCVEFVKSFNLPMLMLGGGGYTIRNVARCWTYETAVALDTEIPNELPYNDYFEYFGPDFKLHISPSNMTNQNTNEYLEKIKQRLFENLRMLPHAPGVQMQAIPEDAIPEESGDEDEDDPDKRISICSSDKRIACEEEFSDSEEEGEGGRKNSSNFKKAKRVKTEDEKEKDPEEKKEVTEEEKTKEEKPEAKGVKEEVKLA

Bel-7402 [2] = experiment: Cell cycle arrest in human Bel7402 cells assessed as accumulation at G2/M phase at 1 uM relative to control; type: functional, cell-based
[3] = target: T1, Protein deacetylase HDAC6 (Homo sapiens, UniProt Q9UBN7); experiment: Inhibition of human recombinant HDAC6 expressed in High5 insect cells using Boc-Lys (-acetyl)-AM) as substrate after 24 hrs by fluorescence assay
T1 sequence (Q9UBN7 whole entry): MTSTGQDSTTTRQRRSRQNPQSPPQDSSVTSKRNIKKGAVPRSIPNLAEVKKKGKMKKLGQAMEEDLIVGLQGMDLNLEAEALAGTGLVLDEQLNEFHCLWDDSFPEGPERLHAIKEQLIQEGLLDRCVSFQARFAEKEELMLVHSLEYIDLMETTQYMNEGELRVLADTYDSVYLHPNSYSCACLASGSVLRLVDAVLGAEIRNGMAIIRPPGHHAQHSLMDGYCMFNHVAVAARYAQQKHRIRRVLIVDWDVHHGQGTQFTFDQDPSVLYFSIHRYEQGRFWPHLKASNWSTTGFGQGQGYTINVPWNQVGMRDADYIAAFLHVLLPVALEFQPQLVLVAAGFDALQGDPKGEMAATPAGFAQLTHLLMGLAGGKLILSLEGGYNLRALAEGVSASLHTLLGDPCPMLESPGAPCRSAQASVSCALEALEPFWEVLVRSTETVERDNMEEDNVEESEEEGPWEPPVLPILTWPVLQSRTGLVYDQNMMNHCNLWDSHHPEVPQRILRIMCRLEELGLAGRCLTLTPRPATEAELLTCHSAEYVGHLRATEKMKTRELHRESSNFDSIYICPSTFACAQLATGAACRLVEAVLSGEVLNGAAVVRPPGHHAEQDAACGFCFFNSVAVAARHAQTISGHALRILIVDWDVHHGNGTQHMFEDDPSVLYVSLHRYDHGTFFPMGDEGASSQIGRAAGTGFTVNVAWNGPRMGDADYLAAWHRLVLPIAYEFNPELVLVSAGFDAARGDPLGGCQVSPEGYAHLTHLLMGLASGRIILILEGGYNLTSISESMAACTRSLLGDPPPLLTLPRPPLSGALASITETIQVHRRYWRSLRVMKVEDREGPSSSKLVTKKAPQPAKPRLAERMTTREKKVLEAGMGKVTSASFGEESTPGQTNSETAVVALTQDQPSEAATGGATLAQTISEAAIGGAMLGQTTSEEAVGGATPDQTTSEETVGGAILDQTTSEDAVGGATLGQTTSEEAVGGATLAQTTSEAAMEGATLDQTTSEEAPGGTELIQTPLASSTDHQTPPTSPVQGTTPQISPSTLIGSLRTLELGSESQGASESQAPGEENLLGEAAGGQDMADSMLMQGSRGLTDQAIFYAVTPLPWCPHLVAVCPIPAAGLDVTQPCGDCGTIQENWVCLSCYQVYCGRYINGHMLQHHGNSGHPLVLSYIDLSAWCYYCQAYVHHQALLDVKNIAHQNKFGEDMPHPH

HCT-116 = experiment: Cytotoxicity against human HCT116 cells after 72 hrs by MTT assay; type: functional, cell-based; settings: HCT-116, 72 h

Structure (SMILES) | Activity (Bel-7402 [1]) | IC50 (Histone deacetylase 3) | IC50 (A549) | IC50 (A-431) | IC50 (MCF7) | IC50 (PC-3) | IC50 (Histone deacetylase 1) | Activity (Bel-7402 [2]) | IC50 [3] | IC50 (HCT-116)
COc1cc2c(c(OC)c1OC)-c1ccc(OC)c(=O)cc1[C@@H](NC(=O)CCCCCC(=O)NO)CC2 | Active | 1030 nM | 7290 nM | 1230 nM | 948 nM | 2940 nM | 1600 nM | Active | 760 nM | 1380 nM
COc1cc2c(c(OC)c1OC)-c1ccc(OC)c(=O)cc1[C@@H](NC(C)=O)CC2 [COLCHICINE] |  |  | 23 nM | 19 nM | 17 nM | 74 nM |  |  |  | 37 nM
COc1cc2c(c(OC)c1OC)-c1ccc(OC)c(=O)cc1[C@@H](NC(=O)CCCC(=O)NO)CC2 | Active | 8360 nM | 7370 nM | 1830 nM | 876 nM | 2340 nM | 9580 nM | Active | 8240 nM | 2740 nM
COc1cc2c(c(OC)c1OC)-c1ccc(OC)c(=O)cc1[C@@H](NC(=O)CCCCCCC(=O)NO)CC2 | Active |  | 7260 nM | 3430 nM | 1380 nM | 3380 nM |  | Active | 9830 nM | 2600 nM
COc1cc2c(c(OC)c1OC)-c1ccc(OC)c(=O)cc1[C@@H](NC(=O)CCC(=O)NO)CC2 | Active | 1360 nM | 4670 nM | 242 nM | 825 nM | 813 nM | 1330 nM | Active | 3430 nM | 903 nM
COc1cc2c(c(OC)c1OC)-c1ccc(OC)c(=O)cc1[C@@H](NC(=O)CCCCC(=O)NO)CC2 | Active | 830 nM | 4930 nM | 1030 nM | 928 nM | 5400 nM | 720 nM | Active | 440 nM | 2080 nM
